Test results as given in the NIST ThermoML archive (doi:10.1021/je1007907).
± gives the expanded uncertainty stated by the source.

Conditions: Liquid

SMILES: CCCCn1cc[n+](C)c1.F[B-](F)(F)F [1-butyl-3-methylimidazolium tetrafluoroborate]
- mass density (239.75 K, 1875.4 kPa): 1243.62 ± 0.78 kg/m3
- mass density (244.15 K, 9187.2 kPa): 1243.32 ± 0.82 kg/m3
- mass density (244.15 K, 30106 kPa): 1251.69 ± 1 kg/m3
- mass density (250.8 K, 41033 kPa): 1251.23 ± 1.1 kg/m3
- mass density (251.15 K, 20631 kPa): 1242.83 ± 0.9 kg/m3
- mass density (251.62 K, 1431.5 kPa): 1234.33 ± 0.76 kg/m3
- mass density (256.79 K, 51047 kPa): 1250.8 ± 1.3 kg/m3
- mass density (257.25 K, 10286 kPa): 1233.95 ± 0.8 kg/m3
- mass density (257.26 K, 30540 kPa): 1242.41 ± 1 kg/m3
- mass density (262.28 K, 59764 kPa): 1250.41 ± 1.4 kg/m3
- mass density (263.49 K, 40569 kPa): 1241.97 ± 1.1 kg/m3
- mass density (263.7 K, 20360 kPa): 1233.5 ± 0.88 kg/m3
- mass density (264.47 K, 1197.4 kPa): 1225.08 ± 0.75 kg/m3
- mass density (269.79 K, 50298 kPa): 1241.52 ± 1.2 kg/m3
- mass density (270.25 K, 9963.8 kPa): 1224.68 ± 0.78 kg/m3
- mass density (270.25 K, 30434 kPa): 1233.04 ± 0.97 kg/m3
- mass density (275.57 K, 59083 kPa): 1241.11 ± 1.4 kg/m3
- mass density (276.95 K, 19845 kPa): 1224.21 ± 0.86 kg/m3
- mass density (276.97 K, 40555 kPa): 1232.57 ± 1.1 kg/m3
- mass density (278.13 K, 1660 kPa): 1215.35 ± 0.74 kg/m3
- mass density (283.48 K, 50231 kPa): 1232.1 ± 1.2 kg/m3
- mass density (284.06 K, 30274 kPa): 1223.71 ± 0.97 kg/m3
- mass density (284.1 K, 10163 kPa): 1214.93 ± 0.79 kg/m3
- mass density (290.09 K, 59872 kPa): 1231.63 ± 1.4 kg/m3
- mass density (291.27 K, 40686 kPa): 1223.19 ± 1.1 kg/m3
- mass density (291.46 K, 20613 kPa): 1214.42 ± 0.88 kg/m3
- mass density (292.09 K, 1445.8 kPa): 1204.99 ± 0.74 kg/m3
- mass density (292.09 K, 1940.4 kPa): 1204.98 ± 0.74 kg/m3
- mass density (298.12 K, 105.9 kPa): 1201.65 ± 0.74 kg/m3
- mass density (298.12 K, 9550.8 kPa): 1204.57 ± 0.79 kg/m3
- mass density (298.13 K, 10109 kPa): 1204.56 ± 0.79 kg/m3
- mass density (298.14 K, 10428 kPa): 1204.76 ± 0.79 kg/m3
- mass density (298.14 K, 29887 kPa): 1213.94 ± 0.99 kg/m3
- mass density (298.58 K, 50942 kPa): 1222.67 ± 1.3 kg/m3
- mass density (305.03 K, 19306 kPa): 1204.07 ± 0.88 kg/m3
- mass density (305.53 K, 898.6 kPa): 1194.9 ± 0.74 kg/m3
- mass density (305.54 K, 60508 kPa): 1222.17 ± 1.4 kg/m3
- mass density (305.67 K, 40148 kPa): 1213.41 ± 1.1 kg/m3
- mass density (313.03 K, 9790.3 kPa): 1194.22 ± 0.8 kg/m3
- mass density (313.04 K, 29821 kPa): 1203.5 ± 1 kg/m3
- mass density (313.04 K, 30149 kPa): 1203.7 ± 1 kg/m3
- mass density (313.05 K, 10270 kPa): 1194.38 ± 0.8 kg/m3
- mass density (313.06 K, 29280 kPa): 1203.51 ± 1 kg/m3
- mass density (313.61 K, 50546 kPa): 1212.83 ± 1.3 kg/m3
- mass density (320.1 K, 328.6 kPa): 1184.62 ± 0.74 kg/m3
- mass density (320.51 K, 19693 kPa): 1193.85 ± 0.9 kg/m3
- mass density (321.4 K, 60815 kPa): 1212.26 ± 1.4 kg/m3
- mass density (321.61 K, 40890 kPa): 1202.88 ± 1.2 kg/m3
- mass density (327.98 K, 48935 kPa): 1202.42 ± 1.3 kg/m3
- mass density (328.18 K, 10050 kPa): 1184.05 ± 0.81 kg/m3
- mass density (328.18 K, 28863 kPa): 1193.3 ± 1 kg/m3
- mass density (328.18 K, 29052 kPa): 1193.14 ± 1 kg/m3
- mass density (328.18 K, 29263 kPa): 1193.3 ± 1 kg/m3
- mass density (328.22 K, 10050 kPa): 1184.05 ± 0.81 kg/m3
- mass density (336.35 K, 39210 kPa): 1192.7 ± 1.2 kg/m3
- mass density (336.68 K, 20276 kPa): 1183.44 ± 0.92 kg/m3
- mass density (337.09 K, 59633 kPa): 1201.76 ± 1.5 kg/m3
- mass density (344.2 K, 29113 kPa): 1182.9 ± 1 kg/m3
- mass density (344.31 K, 48811 kPa): 1192.12 ± 1.3 kg/m3
- mass density (353.68 K, 59697 kPa): 1191.42 ± 1.5 kg/m3
- mass density (354.16 K, 40617 kPa): 1182.17 ± 1.2 kg/m3
